# In ChEMBL document CHEMBL1201862, “PubChem BioAssay data set” (2004):
#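 Step 1: Grow cells in 96-well plates. Step 2: Expose to compound for 48 hours at 5 concentrations. Step 3: Interpolate endpoints linearly; if unreached, use highest concentration. At the GI50, growth is halved.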 The source made the active and inactive calls. Rule as the data show it: active = GI50 up to about 1.1 µM and inactive = higher.
# Columns and labels:
# Test in all cases: inhibition of tumour cell growth, NCI panel, 48 h
# 786-0 = test system: 786-0
# EKVX = test system: EKVX
# HCT-15 = test system: HCT-15
# HL-60 = test system: HL-60
# Hs-578T = test system: Hs-578T
# LOX IMVI = test system: LOX IMVI
# M14 = test system: M14
# MOLT-4 = test system: MOLT-4
# NCI-H23 = test system: NCI-H23
# NCI-H522 = test system: NCI-H522
# NCI/ADR-RES = test system: NCI/ADR-RES
# OVCAR-4 = test system: OVCAR-4
# PC-3 = test system: PC-3
# RPMI-8226 = test system: RPMI-8226
# SF-295 = test system: SF-295
# SNB-19 = test system: SNB-19
# TK-10 = test system: TK-10
# CAKI-1 = test system: CAKI-1
# HOP-92 = test system: HOP-92
# SR = test system: SR
SMILES,GI50 (786-0),GI50 (EKVX),GI50 (HCT-15),GI50 (HL-60),GI50 (Hs-578T),GI50 (LOX IMVI),GI50 (M14),GI50 (MOLT-4),GI50 (NCI-H23),GI50 (NCI-H522),GI50 (NCI/ADR-RES),GI50 (OVCAR-4),GI50 (PC-3),GI50 (RPMI-8226),GI50 (SF-295),GI50 (SNB-19),GI50 (TK-10),GI50 (CAKI-1),GI50 (HOP-92),GI50 (SR)
CC(C)CCc1c(Cl)nc(Cl)nc1Cl,20.3 µM (inactive),26.2 µM (inactive),3.47 µM,> 100 µM (inactive),17.9 µM (inactive),0.726 µM (active),3.61 µM (inactive),0.783 µM (active),8.97 µM (inactive),2.71 µM (inactive),28.2 µM (inactive),19.7 µM (inactive),13.6 µM (inactive),30.7 µM (inactive),18.1 µM (inactive),22 µM (inactive),21.1 µM (inactive),–,–,–
O=C(O)/C(Cl)=C(\Cl)C(=O)NC1C2CC3CC(C2)CC1C3 (stereo not drawn),> 100 µM (inactive),> 100 µM (inactive),> 100 µM,> 100 µM (inactive),–,> 100 µM (inactive),> 100 µM (inactive),> 100 µM (inactive),> 100 µM (inactive),> 100 µM (inactive),–,> 100 µM (inactive),–,> 100 µM (inactive),> 100 µM (inactive),> 100 µM (inactive),–,> 100 µM (inactive),> 100 µM (inactive),> 100 µM (inactive)
CC1N(C)C(=O)OC12CCN(CCCC(=O)c1ccc(F)cc1)CC2 (stereo not drawn),> 100 µM (inactive),–,> 100 µM,> 100 µM (inactive),> 100 µM (inactive),> 100 µM (inactive),> 100 µM (inactive),> 100 µM (inactive),> 100 µM (inactive),> 100 µM (inactive),> 100 µM (inactive),–,> 100 µM (inactive),> 100 µM (inactive),> 100 µM (inactive),> 100 µM (inactive),> 100 µM (inactive),> 100 µM (inactive),–,–
CC1(C)Cc2ccccc2C(C)(Cl)C(=O)N1 (stereo not drawn),> 10 µM (inactive),> 10 µM (inactive),> 10 µM,> 10 µM (inactive),–,–,> 10 µM (inactive),> 10 µM (inactive),> 10 µM (inactive),–,> 10 µM (inactive),> 10 µM (inactive),> 10 µM (inactive),> 10 µM (inactive),> 10 µM (inactive),> 10 µM (inactive),> 10 µM (inactive),> 10 µM (inactive),> 10 µM (inactive),> 10 µM (inactive)
Cc1nn(C(=O)Cc2ccccc2)c2c1C(c1ccc(N(C)C)cc1)SC(=N)N2 (stereo not drawn),> 100 µM (inactive),> 100 µM (inactive),> 100 µM,> 100 µM (inactive),24.5 µM (inactive),> 100 µM (inactive),> 100 µM (inactive),> 100 µM (inactive),> 100 µM (inactive),> 100 µM (inactive),–,–,> 100 µM (inactive),> 100 µM (inactive),48.8 µM (inactive),> 100 µM (inactive),76.6 µM (inactive),> 100 µM (inactive),–,> 100 µM (inactive)
CCOC(=O)/C(=C/Nc1c(C)n(C)n(-c2ccccc2)c1=O)C(C)=O,> 100 µM (inactive),> 100 µM (inactive),> 100 µM,> 100 µM (inactive),–,> 100 µM (inactive),> 100 µM (inactive),> 100 µM (inactive),> 100 µM (inactive),> 100 µM (inactive),> 100 µM (inactive),> 100 µM (inactive),> 100 µM (inactive),> 100 µM (inactive),> 100 µM (inactive),–,> 100 µM (inactive),> 100 µM (inactive),> 100 µM (inactive),> 100 µM (inactive)
COc1cc2c(cc1OC)C1CN3C(=O)CCC3C(O)C1c1cc(OC)c(OC)cc1-2 (stereo not drawn),> 100 µM (inactive),> 100 µM (inactive),> 100 µM,> 100 µM (inactive),> 100 µM (inactive),> 100 µM (inactive),> 100 µM (inactive),> 100 µM (inactive),> 100 µM (inactive),> 100 µM (inactive),> 100 µM (inactive),> 100 µM (inactive),–,> 100 µM (inactive),> 100 µM (inactive),> 100 µM (inactive),> 100 µM (inactive),> 100 µM (inactive),> 100 µM (inactive),> 100 µM (inactive)
CC(C)C(/C=C/c1ccc(Br)cc1)=N\NC(N)=O,> 100 µM (inactive),> 100 µM (inactive),> 100 µM,> 100 µM (inactive),–,> 100 µM (inactive),> 100 µM (inactive),> 100 µM (inactive),> 100 µM (inactive),70.3 µM (inactive),–,> 100 µM (inactive),–,> 100 µM (inactive),> 100 µM (inactive),> 100 µM (inactive),> 100 µM (inactive),> 100 µM (inactive),> 100 µM (inactive),> 100 µM (inactive)
CCc1nc2ccc(/N=N/N(C)C)cc2[nH]1,> 100 µM (inactive),> 100 µM (inactive),> 100 µM,–,> 100 µM (inactive),–,> 100 µM (inactive),> 100 µM (inactive),> 100 µM (inactive),> 100 µM (inactive),> 100 µM (inactive),> 100 µM (inactive),> 100 µM (inactive),> 100 µM (inactive),–,> 100 µM (inactive),> 100 µM (inactive),> 100 µM (inactive),–,–
CN(C)CCCNc1cnc2cc3ccccc3cc2n1,31 µM (inactive),28 µM (inactive),18.4 µM,32.2 µM (inactive),32.1 µM (inactive),14.3 µM (inactive),21.4 µM (inactive),28.4 µM (inactive),25.1 µM (inactive),19.8 µM (inactive),–,23.8 µM (inactive),15.4 µM (inactive),33.3 µM (inactive),20.7 µM (inactive),36.1 µM (inactive),27 µM (inactive),22.4 µM (inactive),23.5 µM (inactive),61.1 µM (inactive)
CCCC(=O)OCC(O)CO (stereo not drawn),> 5000 µM (inactive),–,> 5000 µM,2920 µM (inactive),–,> 5000 µM (inactive),> 5000 µM (inactive),> 5000 µM (inactive),> 5000 µM (inactive),3740 µM (inactive),–,> 5000 µM (inactive),–,2990 µM (inactive),> 5000 µM (inactive),–,1570 µM (inactive),2040 µM (inactive),3080 µM (inactive),> 5000 µM (inactive)
NC(c1ccccc1)(C(F)(F)F)P1(=O)OC(=O)c2ccccc2O1 (stereo not drawn),> 100 µM (inactive),> 100 µM (inactive),> 100 µM,–,–,–,> 100 µM (inactive),48.8 µM (inactive),> 100 µM (inactive),–,> 100 µM (inactive),> 100 µM (inactive),> 100 µM (inactive),> 100 µM (inactive),> 100 µM (inactive),> 100 µM (inactive),> 100 µM (inactive),> 100 µM (inactive),20.9 µM (inactive),71.8 µM (inactive)
CC(=O)Nc1ccc(-c2nnc(SCC(=O)Nc3ccc([N+](=O)[O-])cc3)o2)cc1,11.3 µM (inactive),–,12.9 µM,> 100 µM (inactive),–,5.15 µM (inactive),13.9 µM (inactive),12.2 µM (inactive),12.2 µM (inactive),7.85 µM (inactive),–,13.4 µM (inactive),–,24.7 µM (inactive),14.1 µM (inactive),–,14.6 µM (inactive),14.3 µM (inactive),22.9 µM (inactive),3.18 µM (inactive)
CC[C@H](C)C1=C(OC(C)=O)[N@+]2([O-])Oc3ccc(-c4c(OC(C)=O)c(OC(C)=O)c(-c5ccc(OC(C)=O)cc5)c(OC(C)=O)c4OC(C)=O)cc3O[C@]2([C@@H](C)CC)C(=O)N1OC(C)=O,13.6 µM (inactive),5.45 µM (inactive),15.5 µM,10.5 µM (inactive),–,10.2 µM (inactive),16.9 µM (inactive),11.6 µM (inactive),15.7 µM (inactive),8.05 µM (inactive),17.9 µM (inactive),12.2 µM (inactive),8.59 µM (inactive),9.2 µM (inactive),9.25 µM (inactive),13.7 µM (inactive),15.6 µM (inactive),20 µM (inactive),–,12.6 µM (inactive)
C=C(C)[C@@H]1CCC2=C[C@H](OC2=O)[C@@]2(C)C[C@@H]2C2=CC(C)=C(O2)[C@H]1O,21.8 µM (inactive),36.8 µM (inactive),36.4 µM,46.6 µM (inactive),–,27.1 µM (inactive),68.4 µM (inactive),24.8 µM (inactive),25.9 µM (inactive),15.1 µM (inactive),23.6 µM (inactive),42.2 µM (inactive),33.9 µM (inactive),–,33.3 µM (inactive),> 75 µM (inactive),38.7 µM (inactive),21.5 µM (inactive),> 75 µM (inactive),> 75 µM (inactive)
CCCCN(CCCC)CC(O)c1cc(-c2ccc(Cl)c(Cl)c2)nc2c(Cl)cc(Cl)cc12 (stereo not drawn),> 100 µM (inactive),49.1 µM (inactive),45.1 µM,88.3 µM (inactive),–,88.1 µM (inactive),–,46.2 µM (inactive),49.5 µM (inactive),–,> 100 µM (inactive),> 100 µM (inactive),36.4 µM (inactive),37.1 µM (inactive),> 100 µM (inactive),> 100 µM (inactive),> 100 µM (inactive),–,–,42.6 µM (inactive)
CC(C(=O)N1C(=O)N(C(=O)[C@H](C)C(O)c2ccccc2)[C@H](c2ccccc2)[C@H]1c1ccccc1)[C@@H](O)c1ccccc1 (stereo partly drawn),29.2 µM (inactive),21.1 µM (inactive),45.7 µM,22 µM (inactive),–,–,28.5 µM (inactive),–,44.4 µM (inactive),30.3 µM (inactive),–,26.5 µM (inactive),9.79 µM (inactive),–,29.2 µM (inactive),37.2 µM (inactive),41.2 µM (inactive),20 µM (inactive),25.6 µM (inactive),0.118 µM (active)
